Experiments:
[1] = infusion; normal rats given a glucose load or streptozotocin-treated rats; cited from earlier work
isolated adipocytes = experiment: lipogenesis assay (incorporation of labelled glucose into lipids of isolated adipocytes); type: cell-based, rat; conditions: 10 μl of stock solution in final volume of 1.25 ml
Method: The activation of lipogenesis is monitored by measuring the incorporation of uniformly labelled glucose into lipids of isolated adipocytes as described by Rodbell in J. Biol. Chem. (1964) 239, 375-380.
For the lipogenesis assay, 10 μl of the stock solution is added to a final volume of 1.25 ml.

| Compound | activity of glycogen synthase I [1] | plasma glucose [1] | Lipogensis (% stimulation) (isolated adipocytes) [%] |
| --- | --- | --- | --- |
| OC1C(O)C(O)C(O)C(O)C1O (stereo not drawn) [chiro-inositol] | enhanced activity of glycogen synthase I | decreased plasma glucose |  |
| Insulin |  |  | 273 |

Source: US6106822A, “Hormone and growth factor phosphoglycokine mimetics from mycobacterium” (University College of London, priority 1995, dated 2000)
